Results published in ChEMBL document CHEMBL5465560, “Selectivity Literature for EUbOPEN Chemogenomic Library” (2024).

Key:
[1] = biological target: T1, TGF-beta receptor type-1 (Homo sapiens) (UniProt P36897); assay: Selectivity interaction (KinomeScan (DiscoverX)) EUB0001049a TGFBR1; conditions: at 1 µM
T1 sequence (whole entry): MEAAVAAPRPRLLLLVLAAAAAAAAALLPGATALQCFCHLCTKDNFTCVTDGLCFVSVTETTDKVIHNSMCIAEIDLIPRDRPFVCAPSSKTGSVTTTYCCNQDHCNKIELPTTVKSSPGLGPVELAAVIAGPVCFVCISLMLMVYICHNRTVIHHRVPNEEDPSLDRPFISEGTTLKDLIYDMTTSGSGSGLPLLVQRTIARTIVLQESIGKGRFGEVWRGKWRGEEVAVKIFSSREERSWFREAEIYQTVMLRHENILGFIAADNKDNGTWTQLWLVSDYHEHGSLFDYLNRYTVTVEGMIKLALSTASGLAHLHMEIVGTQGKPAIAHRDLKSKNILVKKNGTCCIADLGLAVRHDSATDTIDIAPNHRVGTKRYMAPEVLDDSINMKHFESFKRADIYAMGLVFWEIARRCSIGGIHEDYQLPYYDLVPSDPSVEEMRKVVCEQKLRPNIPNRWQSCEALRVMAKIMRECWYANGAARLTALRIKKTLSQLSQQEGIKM

[2] = biological target: STE20-like serine/threonine-protein kinase (Homo sapiens, UniProt Q9H2G2); assay: Selectivity interaction (KinomeScan (DiscoverX)) EUB0000229b SLK; conditions: at 10 µM
Chain of STE20-like serine/threonine-protein kinase (Q9H2G2 whole entry, looked up): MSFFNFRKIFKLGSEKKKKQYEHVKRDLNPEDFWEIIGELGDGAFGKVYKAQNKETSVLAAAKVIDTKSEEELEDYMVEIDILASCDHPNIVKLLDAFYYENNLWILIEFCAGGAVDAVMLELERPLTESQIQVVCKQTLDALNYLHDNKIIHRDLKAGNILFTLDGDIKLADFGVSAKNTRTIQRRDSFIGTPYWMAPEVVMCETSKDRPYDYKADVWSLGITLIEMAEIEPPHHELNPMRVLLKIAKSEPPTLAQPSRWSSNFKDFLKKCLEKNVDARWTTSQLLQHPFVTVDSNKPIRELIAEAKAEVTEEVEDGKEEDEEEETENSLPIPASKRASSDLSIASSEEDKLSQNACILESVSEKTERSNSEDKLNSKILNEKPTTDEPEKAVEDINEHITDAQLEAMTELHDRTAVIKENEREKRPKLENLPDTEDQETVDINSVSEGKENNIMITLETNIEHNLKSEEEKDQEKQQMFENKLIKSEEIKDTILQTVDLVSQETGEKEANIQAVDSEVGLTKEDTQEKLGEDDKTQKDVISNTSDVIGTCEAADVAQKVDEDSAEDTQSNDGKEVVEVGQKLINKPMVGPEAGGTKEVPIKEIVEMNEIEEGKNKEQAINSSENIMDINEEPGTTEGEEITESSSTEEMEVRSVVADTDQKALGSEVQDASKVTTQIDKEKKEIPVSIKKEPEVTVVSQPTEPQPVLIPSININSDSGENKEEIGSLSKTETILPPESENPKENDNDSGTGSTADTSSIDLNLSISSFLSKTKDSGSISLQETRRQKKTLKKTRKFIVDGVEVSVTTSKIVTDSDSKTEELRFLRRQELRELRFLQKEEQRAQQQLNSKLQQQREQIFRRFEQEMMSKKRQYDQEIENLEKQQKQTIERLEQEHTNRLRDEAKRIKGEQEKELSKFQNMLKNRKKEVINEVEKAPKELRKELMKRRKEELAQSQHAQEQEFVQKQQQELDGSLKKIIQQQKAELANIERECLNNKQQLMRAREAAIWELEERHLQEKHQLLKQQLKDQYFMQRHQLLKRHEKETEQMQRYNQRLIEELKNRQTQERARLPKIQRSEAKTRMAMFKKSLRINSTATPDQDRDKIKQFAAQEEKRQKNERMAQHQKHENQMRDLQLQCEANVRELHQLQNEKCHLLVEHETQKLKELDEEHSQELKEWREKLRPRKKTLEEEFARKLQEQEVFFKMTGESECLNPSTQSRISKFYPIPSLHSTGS

[3] = biological target: Ribosomal protein S6 kinase alpha-3 (Homo sapiens, UniProt P51812); assay: Selectivity interaction (ActivX KiNativ screen (kinase selectivity in THP-1 cell lysates)) EUB0000639a RPS6KA3; type: subcellular; conditions: lysate, at 0.04 µM
Chain of Ribosomal protein S6 kinase alpha-3 (P51812 whole entry): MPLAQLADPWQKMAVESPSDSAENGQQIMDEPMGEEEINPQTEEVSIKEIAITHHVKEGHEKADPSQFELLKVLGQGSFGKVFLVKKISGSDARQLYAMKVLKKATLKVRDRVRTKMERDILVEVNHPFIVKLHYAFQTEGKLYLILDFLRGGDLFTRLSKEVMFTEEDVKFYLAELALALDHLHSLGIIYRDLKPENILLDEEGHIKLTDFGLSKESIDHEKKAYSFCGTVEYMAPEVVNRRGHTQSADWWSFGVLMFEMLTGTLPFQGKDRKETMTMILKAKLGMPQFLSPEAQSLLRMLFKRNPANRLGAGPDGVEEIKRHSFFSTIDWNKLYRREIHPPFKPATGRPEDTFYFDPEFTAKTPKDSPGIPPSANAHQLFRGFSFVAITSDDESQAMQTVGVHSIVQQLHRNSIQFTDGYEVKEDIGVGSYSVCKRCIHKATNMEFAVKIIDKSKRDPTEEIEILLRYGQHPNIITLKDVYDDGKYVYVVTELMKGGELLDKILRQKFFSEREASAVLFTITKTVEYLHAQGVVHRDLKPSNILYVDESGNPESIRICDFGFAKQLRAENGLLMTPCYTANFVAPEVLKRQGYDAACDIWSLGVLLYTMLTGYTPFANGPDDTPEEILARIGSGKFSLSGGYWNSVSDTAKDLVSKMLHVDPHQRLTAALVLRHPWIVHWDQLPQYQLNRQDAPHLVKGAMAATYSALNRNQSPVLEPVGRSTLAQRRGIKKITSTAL

[4] = biological target: T2, Protein kinase C epsilon type (Homo sapiens) (UniProt Q02156); assay: Selectivity interaction (KinomeScan (DiscoverX)) EUB0000595a PRKCE; conditions: at 10 µM
T2 sequence (whole entry): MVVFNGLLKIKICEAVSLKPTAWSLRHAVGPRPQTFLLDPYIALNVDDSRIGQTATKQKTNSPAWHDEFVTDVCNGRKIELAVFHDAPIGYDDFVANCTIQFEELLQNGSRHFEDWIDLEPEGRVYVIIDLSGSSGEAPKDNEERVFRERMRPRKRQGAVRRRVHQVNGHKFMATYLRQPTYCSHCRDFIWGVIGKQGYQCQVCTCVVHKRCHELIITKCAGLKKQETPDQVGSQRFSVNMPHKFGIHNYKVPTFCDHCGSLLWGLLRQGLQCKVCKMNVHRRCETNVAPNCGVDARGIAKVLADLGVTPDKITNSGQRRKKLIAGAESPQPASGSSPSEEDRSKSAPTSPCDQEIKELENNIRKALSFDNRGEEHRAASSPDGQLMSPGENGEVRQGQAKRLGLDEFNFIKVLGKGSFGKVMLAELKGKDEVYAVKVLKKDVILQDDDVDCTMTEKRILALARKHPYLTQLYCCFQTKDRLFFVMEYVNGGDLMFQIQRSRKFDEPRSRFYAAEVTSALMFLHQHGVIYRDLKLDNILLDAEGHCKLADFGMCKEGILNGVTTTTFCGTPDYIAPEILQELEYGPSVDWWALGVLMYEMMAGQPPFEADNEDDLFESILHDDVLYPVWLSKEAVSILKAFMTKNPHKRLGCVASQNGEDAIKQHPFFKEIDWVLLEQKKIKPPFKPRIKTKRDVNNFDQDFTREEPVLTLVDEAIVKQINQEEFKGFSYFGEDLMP

[5] = biological target: T3, 3-phosphoinositide-dependent protein kinase 1 (Homo sapiens) (UniProt O15530); conditions: at 10 µM
T3 sequence (whole entry): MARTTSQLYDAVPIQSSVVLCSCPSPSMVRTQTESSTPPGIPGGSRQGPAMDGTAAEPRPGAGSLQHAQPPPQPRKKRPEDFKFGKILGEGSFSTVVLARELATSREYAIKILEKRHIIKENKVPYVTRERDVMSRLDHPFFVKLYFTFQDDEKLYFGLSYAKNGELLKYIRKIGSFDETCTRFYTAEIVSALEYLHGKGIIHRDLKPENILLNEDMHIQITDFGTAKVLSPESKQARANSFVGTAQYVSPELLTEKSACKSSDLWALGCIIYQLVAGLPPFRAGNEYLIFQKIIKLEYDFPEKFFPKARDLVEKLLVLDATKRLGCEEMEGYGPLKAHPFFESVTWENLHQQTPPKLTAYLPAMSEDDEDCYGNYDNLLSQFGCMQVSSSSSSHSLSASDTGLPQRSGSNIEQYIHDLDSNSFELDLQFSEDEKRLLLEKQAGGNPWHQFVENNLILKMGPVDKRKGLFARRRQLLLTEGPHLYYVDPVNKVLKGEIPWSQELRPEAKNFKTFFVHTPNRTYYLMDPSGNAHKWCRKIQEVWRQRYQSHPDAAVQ

[6] = biological target: Protein arginine N-methyltransferase 6 (Homo sapiens, UniProt Q96LA8); assay: Selectivity interaction (Scintillation proximity assays) EUB0000255b PRMT6
Chain of Protein arginine N-methyltransferase 6 (Q96LA8 whole entry): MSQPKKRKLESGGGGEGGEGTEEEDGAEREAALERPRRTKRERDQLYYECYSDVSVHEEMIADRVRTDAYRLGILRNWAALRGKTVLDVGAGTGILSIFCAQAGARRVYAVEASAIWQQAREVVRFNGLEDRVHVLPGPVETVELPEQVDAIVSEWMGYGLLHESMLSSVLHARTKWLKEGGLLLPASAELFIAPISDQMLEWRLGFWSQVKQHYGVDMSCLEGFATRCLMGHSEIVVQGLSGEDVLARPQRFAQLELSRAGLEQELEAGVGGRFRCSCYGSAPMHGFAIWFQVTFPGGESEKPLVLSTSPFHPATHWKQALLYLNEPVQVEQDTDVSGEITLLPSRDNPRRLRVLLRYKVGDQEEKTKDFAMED

[7] = biological target: Serine/threonine-protein kinase 38-like (Homo sapiens) (UniProt Q9Y2H1); assay: Selectivity interaction (KinomeScan (DiscoverX)) EUB0000045b STK38L
Chain of Serine/threonine-protein kinase 38-like (Homo sapiens) (Q9Y2H1 2-464 limits assumed): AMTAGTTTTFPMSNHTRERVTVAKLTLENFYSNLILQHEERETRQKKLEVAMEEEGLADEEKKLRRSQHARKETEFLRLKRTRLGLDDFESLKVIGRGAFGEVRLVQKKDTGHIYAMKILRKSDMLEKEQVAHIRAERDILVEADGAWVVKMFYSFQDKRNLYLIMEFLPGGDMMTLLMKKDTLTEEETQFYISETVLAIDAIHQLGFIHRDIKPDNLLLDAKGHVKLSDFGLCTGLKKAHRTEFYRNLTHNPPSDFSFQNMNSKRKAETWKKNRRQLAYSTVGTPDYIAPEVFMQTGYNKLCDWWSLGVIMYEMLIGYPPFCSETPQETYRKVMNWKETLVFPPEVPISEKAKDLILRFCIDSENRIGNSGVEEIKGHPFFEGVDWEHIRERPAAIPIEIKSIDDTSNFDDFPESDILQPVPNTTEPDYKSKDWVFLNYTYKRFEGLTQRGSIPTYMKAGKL

[8] = biological target: T4, Calcium/calmodulin-dependent protein kinase type IV (Homo sapiens) (UniProt Q16566); assay: Selectivity interaction (SelectScreen profiling (Invitrogen)) EUB0000607a CAMK4; conditions: at 2 µM
T4 sequence (whole entry): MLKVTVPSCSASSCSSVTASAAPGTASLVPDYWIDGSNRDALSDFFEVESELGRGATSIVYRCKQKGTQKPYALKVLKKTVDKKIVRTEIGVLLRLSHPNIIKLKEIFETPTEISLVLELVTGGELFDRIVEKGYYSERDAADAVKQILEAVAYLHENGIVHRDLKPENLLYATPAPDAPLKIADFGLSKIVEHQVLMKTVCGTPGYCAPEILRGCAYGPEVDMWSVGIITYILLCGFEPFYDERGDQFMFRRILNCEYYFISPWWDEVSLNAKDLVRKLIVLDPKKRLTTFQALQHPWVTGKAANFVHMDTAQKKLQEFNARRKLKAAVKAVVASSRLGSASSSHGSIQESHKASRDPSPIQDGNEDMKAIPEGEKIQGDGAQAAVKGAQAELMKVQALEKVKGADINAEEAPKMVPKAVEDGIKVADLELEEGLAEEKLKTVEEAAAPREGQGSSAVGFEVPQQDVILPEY

[9] = biological target: Tyrosine-protein kinase ABL1 (Homo sapiens, UniProt P00519); assay: Selectivity interaction (KinomeScan (DiscoverX)) EUB0001868a ABL1; conditions: at 1 µM
Chain of Tyrosine-protein kinase ABL1 (P00519 whole entry): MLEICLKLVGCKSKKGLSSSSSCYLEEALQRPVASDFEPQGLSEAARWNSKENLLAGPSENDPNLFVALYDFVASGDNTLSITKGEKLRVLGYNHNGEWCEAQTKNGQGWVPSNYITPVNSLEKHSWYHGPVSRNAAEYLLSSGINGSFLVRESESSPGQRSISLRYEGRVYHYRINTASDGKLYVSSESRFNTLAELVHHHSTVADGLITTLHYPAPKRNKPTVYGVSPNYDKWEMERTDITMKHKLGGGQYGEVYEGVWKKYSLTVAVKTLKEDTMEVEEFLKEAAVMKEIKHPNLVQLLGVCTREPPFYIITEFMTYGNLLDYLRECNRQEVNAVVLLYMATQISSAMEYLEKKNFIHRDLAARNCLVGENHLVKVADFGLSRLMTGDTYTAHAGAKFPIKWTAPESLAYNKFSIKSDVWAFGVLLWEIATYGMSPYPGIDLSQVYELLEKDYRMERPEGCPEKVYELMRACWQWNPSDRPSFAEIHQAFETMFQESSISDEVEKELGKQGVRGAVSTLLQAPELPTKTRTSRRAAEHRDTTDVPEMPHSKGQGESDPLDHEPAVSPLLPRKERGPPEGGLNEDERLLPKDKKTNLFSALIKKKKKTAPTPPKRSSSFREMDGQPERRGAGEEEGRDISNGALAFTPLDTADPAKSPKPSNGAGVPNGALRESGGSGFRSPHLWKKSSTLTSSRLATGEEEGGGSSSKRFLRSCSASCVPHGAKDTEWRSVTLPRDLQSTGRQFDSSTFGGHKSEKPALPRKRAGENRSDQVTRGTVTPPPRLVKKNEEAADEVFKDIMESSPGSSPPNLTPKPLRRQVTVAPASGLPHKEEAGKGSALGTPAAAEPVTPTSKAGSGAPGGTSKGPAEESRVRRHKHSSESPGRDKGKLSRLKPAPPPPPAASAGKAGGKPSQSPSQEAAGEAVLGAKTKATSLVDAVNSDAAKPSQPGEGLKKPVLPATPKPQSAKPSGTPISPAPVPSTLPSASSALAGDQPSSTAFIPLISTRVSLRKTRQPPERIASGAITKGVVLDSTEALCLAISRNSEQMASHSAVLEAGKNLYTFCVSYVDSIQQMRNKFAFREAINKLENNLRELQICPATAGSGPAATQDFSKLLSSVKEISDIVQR

[10] = biological target: Death-associated protein kinase 1 (Homo sapiens, UniProt P53355); assay: Selectivity interaction (Adapta Assay) EUB0001632a DAPK1; conditions: at 10 µM
[11] = biological target: Histone-lysine N-methyltransferase KMT5C (Homo sapiens) (UniProt Q86Y97); assay: Selectivity interaction (Methyltransferase screen (radiometric assays, panel of 8 PRMTs, 21 protein lysine methyltransferases, 3 DNA methyltransferases, and one RNA methyltransferase)) EUB0000271b SUV420H2
Chain of Histone-lysine N-methyltransferase KMT5C (Homo sapiens) (Q86Y97 whole entry, looked up): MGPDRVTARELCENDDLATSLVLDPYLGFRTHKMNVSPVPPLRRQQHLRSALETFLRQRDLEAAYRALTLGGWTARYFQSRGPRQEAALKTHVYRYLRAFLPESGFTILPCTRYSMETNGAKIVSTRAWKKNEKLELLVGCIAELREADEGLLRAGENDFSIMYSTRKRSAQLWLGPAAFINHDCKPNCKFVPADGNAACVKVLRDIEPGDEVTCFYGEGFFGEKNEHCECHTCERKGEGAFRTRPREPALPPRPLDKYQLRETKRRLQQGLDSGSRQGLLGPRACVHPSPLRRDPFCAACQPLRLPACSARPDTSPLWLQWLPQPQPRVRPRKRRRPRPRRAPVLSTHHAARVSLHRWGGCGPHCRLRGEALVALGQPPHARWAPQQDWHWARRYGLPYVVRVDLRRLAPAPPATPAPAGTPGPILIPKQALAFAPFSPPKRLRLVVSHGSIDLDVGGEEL

`COc1cc(Nc2nc(C)cc(-c3cnn4nc(OC)ccc34)n2)cc(C(F)(F)F)c1` showed a % of control [1] of 100%.
Compound `COc1cc(N(C)c2ccnc3ccc(C(F)(F)F)cc23)cc(OC)c1OC` has a % binding [2] of 31%.
`CC[C@@H]1[C@H](F)C(=O)N[C@@H]1COc1nccc2cc(C(N)=O)c(OC)cc12` [ZIMLOVISERTIB] gave a % of inhibition [3] of 16.1%.
Work on `COCC(=O)NC/C=C/c1ccc2ncnc(Nc3ccc(Oc4ccc(C)nc4)c(C)c3)c2c1` [CP-724714] yielded a % of control [4] of 100% and a % of control [5] of 100%.
`COCCN1CCC(c2cc(CN(C)C(=O)c3cccc(Oc4ccccc4)c3)ccn2)CC1` showed an IC50 [6] greater than 10 µM.
`C=CC(=O)Nc1cc(-n2c(=O)ccc3cnc4ccc(-c5ccc(NS(C)(=O)=O)cc5)cc4c32)ccc1C` gave a % of control ([7]; at 1 µM) of 100% and a % of control ([7]; at 10 µM) of 95%.
`CNC(=O)Nc1ccc(-c2nc(N3CC4CCC(C3)O4)c3cnn(C4CCC5(CC4)OCCO5)c3n2)cc1` showed a % of inhibition [8] of -1%.
In the case of `Cc1cc(-c2ccnc(Nc3cnn(C)c3)n2)ccc1CNC(=O)N1CC(OC(C)C)C1`, the % of control [9] is reported as 21%.
`Cn1cc(-n2cnc3c(NCc4nc5cc(Cl)c(Cl)cc5[nH]4)nc(N4CCOCC4)nc32)cn1` was tested, and the % of inhibition [10] was 34%.
`Cc1cc(C)cc([C@@H]2c3cc(C)ccc3NC(=O)CN2C(=O)c2ccc(Br)s2)c1` showed a % of activity ([11]; at 1 µM) of 102% and a % of activity ([11]; at 10 µM) of 102%.
